Measurements reported in patent publication US10501495B2, “Antimicrobial surface” (The University of Birmingham, priority 2014, dated 2019).
≈ marks a conversion by molar mass, not a printed value. Where a SMILES comes first, the peptide text is derived from it. Primed or numbered codes have the meaning given here. Where no end group is shown, it is not given here. Linker = not defined here; FITC′ = not defined here

Tests used:
P. aeruginosa = type: cell-based
Method: (§1) The antibacterial activity of various amino acid sequences was tested against S. aureus, P. aeruginosa and E. coli.

E. coli = type: cell-based
Method: as §1

S. aureus = type: cell-based
Method: as §1

[1] = Release study of FITC peptide from hydroxyapatite disk into PBS (fluorescence); type: physicochemical
Method: A release study was carried out to ascertain the strength of adherence of the DDDDDDD (SEQ ID NO: 15)-Linker-FITC peptide to the hydroxyapatite surface. Disks of hydroxyapatite were incubated in 1 mg/ml peptide solutions for 1 hour and then washed thoroughly with PBS. The disk was then placed into a cuvette and surrounded with PBS solution (2 ml). The fluorescence of the solution around the disk was measured to ascertain the rate of peptide diffusion from the disk into the surrounding solution.

[2] = Binder-surface adherence of FITC-labelled binder peptide, fluorescence microscopy; type: physicochemical; details: hydroxyapatite disks and titanium squares, pH 7, room temperature, washed before imaging
Source text: This work established that the binder peptides interact with the surfaces

[3] = Further release studies of linker-FITC peptides from surface under different temperatures and pH; type: physicochemical
Method: Further release studies were carried out to ascertain the strength of adherence of the peptides RKLPDA (SEQ ID NO: 12), RKLPDARKLPDA (SEQ ID NO: 13) and EEEEEEE (SEQ ID NO: 14) to the surface under different temperatures and pH. Each peptide comprised a linker-FITC sequence for fluorescence. Surfaces were coated with peptide as described for FIG. 1. The peptide-coated disks were incubated in PBS or in a balanced buffer at a set pH. Aliquots of the solution surrounding the surface were taken out at set time points and the fluorescence of the peptide in the solution monitored to establish the rate of peptide diffusion from the disk into the surrounding solution.

[4] = room temperature, balanced buffer pH 9 (FIG. 5)
[5] = room temperature, balanced pH 7 buffer (FIG. 4)

Row | Compound | Minimum inhibitory concentration (MIC) P. aeruginosa (P. aeruginosa) | Minimum inhibitory concentration (MIC) E. coli (E. coli) | Minimum inhibitory concentration (MIC) S. aureus (S. aureus) | also measured
1 | EEEEEEEE | none | none | none | 
2 | DDDDDDD (DDDDDDD-{Linker-FITC′}; not fully specified; reading uncertain) |  |  |  | rate of release from hydroxyapatite into surrounding solution ([1]; disk incubated in 1 mg/ml peptide 1 hour, PBS 2 ml): fairly slow rate; time up to which increases in fluorescence (release) were observed ([1]; hydroxyapatite disk in PBS): up to 10 hours; adherence of FITC-labelled binder peptide to surfaces [2]: adhered well to the surfaces
3 | EEEEEEE (also: linker-FITC, site not given here) |  |  |  | release of peptide from surface ([3]; 4° C., pH 7 PBS (FIG. 3)): released; release of peptide from surface ([3]; 37° C., pH 7 PBS (FIG. 2)): released; release of peptide from surface [3, 4]: released; release of peptide from surface [3, 5]: released; release in comparison to RKLPDA and RKLPDARKLPDA ([3]; room temperature, pH 4 (FIG. 6)): Increased release
4 | N=C(N)NCCC[C@H](NC(=O)[C@H](CCCNC(=N)N)NC(=O)[C@H](CCCNC(=N)N)NC(=O)[C@H](CCCNC(=N)N)NC(=O)[C@H](CCCNC(=N)N)NC(=O)[C@@H](N)CCCNC(=N)N)C(=O)O [RRRRRR] | 39 µg/mL (≈ 0.0408 mM) | 2500 µg/mL (≈ 2.62 mM) | 5000 µg/mL (≈ 5.23 mM) | efficacy against P. aeruginosa (in words) (P. aeruginosa): surprisingly high efficacy
5 | RRIYGRGYIRREEEEEEEE [RRIYGRGYIRREEEEEEEE] | 10000 µg/mL | 5000 µg/mL | 5000 µg/mL | 
6 | CC(C)C[C@H](NC(=O)CNC(=O)[C@H](CS)NC(=O)[C@@H](NC(=O)CN)[C@@H](C)O)C(=O)N1CCC[C@H]1C(=O)NCC(=O)N[C@H](C(=O)N[C@@H](CCCCN)C(=O)N[C@@H](CS)C(=O)N[C@@H](CS)C(=O)O)[C@@H](C)O [GTCGLPGTKCC] (H-GTCGLPGTKCC-OH; N-terminus and C-terminus assumed) | 5000 µg/mL (≈ 4.81 mM) | 10000 µg/mL (≈ 9.62 mM) | 5000 µg/mL (≈ 4.81 mM) | 
7 | RKLPDA (also: linker-FITC, site not given here) | none | none | none | release of peptide from surface [3, 4]: not released; release of peptide from surface [3, 5]: not released
8 | RKLPDARKLPDA (also: linker-FITC, site not given here) |  |  |  | release of peptide from surface [3, 4]: not released; release of peptide from surface [3, 5]: not released
9 | RLYLRIGRR [RLYLRIGRR] | 2000 µg/mL | 250 µg/mL | 500 µg/mL | 
10 | RRIYGRGYIRRRKLPDA [RRIYGRGYIRRRKLPDA] | 10000 µg/mL | 5000 µg/mL | 10000 µg/mL | 
11 | GTCIYQRLNAF [GTCIYQRLNAF] | 10000 µg/mL | 10000 µg/mL | 10000 µg/mL | 
12 | PACIGERRY [PACIGERRY] | 10000 µg/mL | 10000 µg/mL | 10000 µg/mL | 
13 | RRIYGRGYIRR [RRIYGRGYIRR] | 2500 µg/mL | 1250 µg/mL | 2500 µg/mL | 
